Assay [1] deals with PMA-stimulated P90RSK(Ser380) phosphorylation in HepG2 cells. Description: Cellular P90RSK(Ser380) Phosphorylation Assay. It counts as cell-based. As to conditions: Homo sapiens, 1.5 h compound incubation, PMA stimulation, pP90RSK(Ser380) normalized to GAPDH, read-out: Cell Assay IC50. How it is done: Inhibition of PMA-stimulated P90RSK(Ser380) phosphorylation was determined by the following in vitro cellular mechanistic assay, which comprises incubating cells with a compound for 1.5 hours and quantifying fluorescent pP90RSK(Ser380) signal on fixed cells and normalizing to GAPDH signal.
Materials and Methods: HepG2 cells were obtained from ATCC and grown in DMEM supplemented with 10% fetal bovine serum. Cells were plated in 96-well plates at 35,000 cells/well and allowed to attach overnight at 37° C./5% CO2. Diluted compounds were then added at a final concentration of 0.5% DMSO. After 1.5 hour compound incubation, cells were stimulated with the addition of PMA (phorbol 12-myristate 13-acetate) at a final concentration of 100 ng/mL; the PMA stimulation was a 30-minute incubation at 37° C./5% CO2. After the 30-minute PMA stimulation, cells were washed with PBS and fixed in 3.7% formaldehyde in PBS at room temperature for 15-20 minutes. This was followed by another wash in PBS and then permeabilization in 100% MeOH at room temperature for 10-15 minutes. Following the permeabilization incubation, cells were washed in PBS/0.05% Tween-20, followed by a block in Odyssey blocking buffer (LI-COR Biosciences) for at least 1 hour. Antibodies to phosphorylated P90RSK(Ser380) (Cell Signaling #9335, rabbit monoclonal) and GAPDH (Fitzgerald 10R-G109a, mouse monoclonal) were added to the cells and incubated overnight at 4° C. pP90RSK(Ser380) antibody was used at a 1:250 dilution; GAPDH was used at a 1:10,000 dilution. After washing with PBS/0.05% Tween-20, the cells were incubated with fluorescently-labeled secondary antibodies (Anti-rabbit-Alexa Flour680, Invitrogen Cat#A21109; Anti-mouse-IRDye800CW, Rockland Inc. Cat#610-131-121) for 1 hour. Both secondary antibodies were used at a 1:1000 dilution. Cells were then washed and analyzed for fluorescence at both wavelengths using the Odyssey Infrared Imaging System (LI-COR Biosciences). Phosphorylated P90RSK(Ser380) signal was normalized to GAPDH signal. Representative date is in TABLE III (infra).

Assay [2] addresses human ERK-2 (Mitogen Activated Kinase 1) (Homo sapiens (Human), UniProt P28482). The assay is described as follows: ERK-2 Enzymatic Assay. It counts as biochemical. As to conditions: 5 nM ERK-2, 25 μM ATP, Omnia peptide S/T17; read-out: ERK Inhibition IC50. How it is done: Compounds were tested in an enzymatic assay using human ERK-2 (Mitogen Activated Kinase 1), recombinantly expressed as an n-terminal 6-His fusion protein in E. coli and corresponding to aa 8-360. The substrate used was the fluorescent Omnia peptide S/T17 (Invitrogen of Carlsbad, Calif.; Cat. KNZ1171C). Test compounds were diluted in DMSO in 3-fold serial dilutions at 100× final concentrations. […] The assay was run at ambient temperature in a white 384-well polypropylene plate (Nunc, Inc of Naperville, Ill.; Cat. 267462) collecting data every 50 seconds for approximately 30 minutes on an Envision plate reader (PerkinElmer, Inc. of Waltham, Mass.); Excitation 340 nm/Emission 495 nm. The data collected from each well was fit to a straight line and the resulting rates were used to calculate percent of control. Percent of control was plotted against compound concentration and IC50 values were determined using a four-parameter fit.

Molecules are shown by their SMILES. Counter-ions that a name gives are not always drawn.

Sequence of human ERK-2 (Mitogen Activated Kinase 1) (P28482 8-360): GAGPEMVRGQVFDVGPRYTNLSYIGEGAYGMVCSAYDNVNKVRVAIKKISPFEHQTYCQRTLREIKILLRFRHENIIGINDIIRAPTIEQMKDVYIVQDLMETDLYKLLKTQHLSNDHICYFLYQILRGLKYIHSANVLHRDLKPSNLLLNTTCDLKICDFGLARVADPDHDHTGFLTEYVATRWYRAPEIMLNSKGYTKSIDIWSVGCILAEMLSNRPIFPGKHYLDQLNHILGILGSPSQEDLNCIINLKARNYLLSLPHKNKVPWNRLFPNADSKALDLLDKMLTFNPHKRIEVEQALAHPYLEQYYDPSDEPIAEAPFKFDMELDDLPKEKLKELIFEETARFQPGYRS

In general, IC50 refers to the midpoint of a concentration-inhibition curve. As to `CC(C)Nc1ncc2c(n1)CN(C(=O)N[C@H](CNc1ccncn1)c1ccc(F)c(Cl)c1)CC2` [II-51, 2-Isopropylamino-5,8-dihydro-6H-pyrido[3,4-d]pyrimidine-7-carboxylic acid [(S)-1-(3-chloro-4-fluoro-phenyl)-2-(pyrimidin-4-ylamino)-ethyl]-amide], the results for the 50% inhibitory concentration (IC50) in assay [1] and in assay [2] were 0.435 µM and 0.0024 µM, respectively.

As to `O=C(N1CCc2cnc(NC3CCOCC3)nc2C1)N1CCCC1c1ccccn1` (stereo not drawn) [II-288, (2-Pyridin-2-yl-pyrrolidin-1-yl)-[2-(tetrahydro-pyran-4-ylamino)-5,8-dihydro-6H-pyrido[3,4-d]pyrimidin-7-yl]-methanone], the values for the IC50 in assay [1] and in assay [2] were 9.5 µM and 0.0627 µM, respectively.

For the molecule `CNC[C@@H](NC(=O)N1CCc2cnc(Nc3ccc(F)cc3)nc2C1)c1ccc(C(F)(F)F)c(F)c1` [Compound I-68, (S)—N-(1-(3-fluoro-4-(trifluoromethyl)phenyl)-2-(methylamino)ethyl)-2-(4-fluorophenylamino)-5,6-dihydropyrido[3,4-d]pyrimidine-7(8H)-carboxamide hydrochloride], the values for the 50% inhibitory concentration (IC50) in assay [1] and in assay [2] were 0.146 µM and 0.0023 µM, respectively.

Turning to `CC(CF)Nc1ncc2c(n1)CN(C(=O)N[C@H](CO)c1ccc(Cl)c(Cl)c1)CC2` (stereo partly drawn) [Compound I-60, N—((S)-1-(3,4-dichlorophenyl)-2-hydroxyethyl)-2-(1-fluoropropan-2-ylamino)-5,6-dihydropyrido[3,4-d]pyrimidine-7(8H)-carboxamide], the half-inhibitory concentration (IC50) was determined as 0.1 µM in assay [1] and 0.0033 µM in assay [2].

For `N#CCN1C[C@@H](NC(=O)N2CCc3cnc(NC4CCOCC4)nc3C2)[C@H](c2ccc(F)c(F)c2)C1` [II-341, 2-(Tetrahydro-pyran-4-ylamino)-5,8-dihydro-6H-pyrido[3,4-d]pyrimidine-7-carboxylic acid [(3S,4R)-1-cyanomethyl-4-(3,4-difluoro-phenyl)-pyrrolidin-3-yl]-amide], the half-inhibitory concentration (IC50) came to 0.371 µM in assay [1] and 0.004 µM in assay [2].

Turning to `C[C@@H](CO)Nc1ncc2c(n1)CN(C(=O)N[C@@H](c1ccc(Cl)c(Cl)c1)C(F)(F)F)CC2` [Compound I-23, N—((S)-1-(3,4-dichlorophenyl)-2,2,2-trifluoroethyl)-2-((S)-1-hydroxypropan-2-ylamino)-5,6-dihydropyrido[3,4-d]pyrimidine-7(8H)-carboxamide], the figures for the IC50 in assay [1] and in assay [2] were 0.493 µM and 0.0032 µM, respectively.

With `COCC[C@@H](CO)Nc1ncc2c(n1)CN(C(=O)N[C@H](C)c1ccc(Cl)c(Cl)c1)CC2` [II-399, 2-((S)-1-Hydroxymethyl-3-methoxy-propylamino)-5,8-dihydro-6H-pyrido[3,4-d]pyrimidine-7-carboxylic acid [(R)-1-(3,4-dichloro-phenyl)-ethyl]-amide], the IC50 in assay [1] is 0.287 µM; in assay [2] it was 0.00303 µM.

For `CS(=O)(=O)CC[C@@H](NC(=O)N1CCc2cnc(NC3CCOCC3)nc2C1)c1ccc(Cl)c(Cl)c1` [Compound I-105, (R)—N-(1-(3,4-dichlorophenyl)-3-(methylsulfonyl)propyl)-2-(tetrahydro-2H-pyran-4-ylamino)-5,6-dihydropyrido[3,4-d]pyrimidine-7(8H)-carboxamide], the IC50 in assay [1] amounted to 0.101 µM; in assay [2], 0.0026 µM.

As to `C[C@@H](CO)Nc1ncc2c(n1)CN(C(=O)NCc1cnc(C(F)(F)F)nc1)CC2` [Compound I-109, 2-((S)-2-Hydroxy-1-methyl-ethylamino)-5,8-dihydro-6H-pyrido[3,4-d]pyrimidine-7-carboxylic acid (2-trifluoromethyl-pyrimidin-5-ylmethyl)-amide], the values for the half-maximal inhibitory concentration (IC50) in assay [1] and in assay [2] were 3.3 µM and 0.0927 µM, respectively.

As to `Cn1cc(C(NC(=O)N2CCc3cnc(NC4CCOCC4)nc3C2)c2ccc(Cl)c(F)c2)cn1` (stereo not drawn) [Compound I-5, N-((4-chloro-3-fluorophenyl)(1-methyl-1H-pyrazol-4-yl)methyl)-2-(tetrahydro-2H-pyran-4-ylamino)-5,6-dihydropyrido[3,4-d]pyrimidine-7(8H)-carboxamide], the 50% inhibitory concentration (IC50) is 0.0473 µM in assay [1] and 0.0014 µM in assay [2].

For the molecule `O=C(N[C@@H](c1ccc(Cl)c(F)c1)[C@@H]1CNCCO1)N1CCc2cnc(NC3CCOCC3)nc2C1` (mixture of isomers) [Compound I-144, N—((R)-(4-chloro-3-fluorophenyl)((R)-morpholin-2-yl)methyl)-2-(tetrahydro-2H-pyran-4-ylamino)-5,6-dihydropyrido[3,4-d]pyrimidine-7(8H)-carboxamide and N—((S)-(4-chloro-3-fluorophenyl)((S)-morpholin-2-yl)methyl)-2-(tetrahydro-2H-pyran-4-ylamino)-5,6-dihydropyrido[3,4-d]pyrimidine-7(8H)-carboxamide mixture], the 50% inhibitory concentration (IC50) is 0.0913 µM in assay [1] and 0.0023 µM in assay [2].

Consider `Cc1cccc(CCNc2ncc3c(n2)CN(C(=O)N[C@H](CO)c2ccc(F)c(Cl)c2)CC3)n1` [II-10, 2-[2-(6-Methyl-pyridin-2-yl)-ethylamino]-5,8-dihydro-6H-pyrido[3,4-d]pyrimidine-7-carboxylic acid [(S)-1-(3-chloro-4-fluoro-phenyl)-2-hydroxy-ethyl]-amide], for which the half-maximal inhibitory concentration (IC50) in assay [1] turned out to be 20.8 µM; in assay [2] it was 0.061 µM.

As to `C[C@@H](NC(=O)N1CCc2cnc(NC3CC(F)(F)C3)nc2C1)c1ccc(Cl)c(Cl)c1` [II-355, 2-(3,3-Difluoro-cyclobutylamino)-5,8-dihydro-6H-pyrido[3,4-d]pyrimidine-7-carboxylic acid [(R)-1-(3,4-dichloro-phenyl)-ethyl]-amide], the figures for the IC50 in assay [1] and in assay [2] were 0.97 µM and 0.0075 µM, respectively.

As to `CC1(C)CC[C@@H]([C@@H](NC(=O)N2CCc3cnc(NC4CCOCC4)nc3C2)c2ccc(C(F)(F)F)cc2F)N1` [Compound I-86, N—((S)—((S)-5,5-dimethylpyrrolidin-2-yl)(2-fluoro-4-(trifluoromethyl)phenyl)methyl)-2-(tetrahydro-2H-pyran-4-ylamino)-5,6-dihydropyrido[3,4-d]pyrimidine-7(8H)-carboxamide], the IC50 in assay [1] is 3.6 µM; in assay [2] it was 0.148 µM.

On to `C[C@@H](CO)Nc1ncc2c(n1)CN(C(=O)NCc1ccc(Cl)c(Cl)c1)CC2` [Compound I-90, (S)—N-(3,4-dichlorobenzyl)-2-(1-hydroxypropan-2-ylamino)-5,6-dihydropyrido[3,4-d]pyrimidine-7(8H)-carboxamide], for which the figures for the IC50 in assay [1] and in assay [2] were 0.103 µM and 0.0021 µM, respectively.

For `C[C@H](Cc1ccc(Cl)cc1)NC(=O)N1CCc2cnc(N[C@@H](C)CO)nc2C1` [II-136, 2-(2-Hydroxy-1-methyl-ethylamino)-5,8-dihydro-6H-pyrido[3,4-d]pyrimidine-7-carboxylic acid [2-(4-chloro-phenyl)-1-methyl-ethyl]-amide], the figures for the IC50 in assay [1] and in assay [2] were 0.464 µM and 0.0022 µM, respectively.

`COCCOC[C@@H](NC(=O)N1CCc2cnc(N[C@@H](C)CO)nc2C1)c1ccc(F)c(Cl)c1` [II-78, 2-((S)-2-Hydroxy-1-methyl-ethylamino)-5,8-dihydro-6H-pyrido[3,4-d]pyrimidine-7-carboxylic acid [(S)-1-(3-chloro-4-fluoro-phenyl)-2-(2-methoxy-ethoxy)-ethyl]-amide]: the IC50 turned out to be 1.4 µM in assay [1] and 0.0177 µM in assay [2].

With `CC(=O)N1CCC[C@H]1[C@@H](NC(=O)N1CCc2cnc(NC(C)C)nc2C1)c1ccc(Cl)c(F)c1` [Compound I-87, N—((S)—((S)-1-acetylpyrrolidin-2-yl)(4-chloro-3-fluorophenyl)methyl)-2-(isopropylamino)-5,6-dihydropyrido[3,4-d]pyrimidine-7(8H)-carboxamide], the 50% inhibitory concentration (IC50) in assay [1] is 5.1 µM; in assay [2], 0.195 µM.

Source of the values: patent US9133187B2, “Serine/threonine kinase inhibitors” (ARRAY BIOPHARMA INC., priority 2011, dated 2015).
